Measured values: patent publication US11471391B2, “Cosmetic composition for inhibiting sebum hypersecretion” (NeoPharm Co., Ltd., priority 2019, dated 2022)

Tests used:
Format in all cases: cell-based
human sebocytes [1] = assay: Effect of inhibiting sebum secretion, oil red O staining of IGF-1-treated human sebocytes
Description: 2. Effect of Inhibiting Sebum Secretion
(§1) 1×10^5 (1 mL/well) of human sebocytes were adhered on a 12-well plate containing a Dulbecco's modified eagle medium (DMEM)/F12 (1:1) containing 10% fetal bovine serum (FBS).
In FIG. 2, each sample of a control group (1 μM) which was previously treated with IGF-1 (50 ng/ml) after culturing for 24 hours and an experimental group in which the control group was treated with Compound 1 of Example 1 (20 μM) was stained after 24 hours with a 0.5% oil red O solution for 1 hour and treated with 100% isopropanol, and an absorbance was measured by a 500 nm ELISA reader.

PPAR-γ = assay: Effect of inhibiting expression of PPAR-γ by Western blot in IGF-1-treated human sebocytes; details: human sebocytes pretreated with IGF-1 (50 ng/ml), sample 20 μM, 24 hours, FIG. 1
Description: 1. Effect of Inhibiting Expression of PPAR-γ by Western Blot
In the present invention, 1.5×10^5 (1 mL/well) of human sebocytes were adhered on a 12-well plate containing a Dulbecco's modified eagle medium (DMEM)/F12 (1:1) containing 10% fetal bovine serum (FBS). After culturing for 24 hours, cells were collected after 24 hours from each sample of a control group (1 μM) in which the medium was replaced with a serum-free medium and previously treated with IGF-1 (50 ng/ml) and an experimental group in which the control group was treated with Compound 1 of Example 1 (20 μM). In addition, in the present invention, the control means a sample which was not treated with IGF-1, and the comparative group means a sample in which the control group was treated with retinoic acid (20 μM). Thereafter, expression of PPAR-γ protein which is a representative lipid synthetic transcription factor of sebocytes was analyzed by the Western blot, for each of these samples.

human sebocytes [2] = assay: Nile red staining of human sebocytes, microscopic image; details: Nile red 1 ug/ml for 30 minutes, FIG. 3
Description: as §1

**Q.** Which results are given for `CCCCCCCC(=O)C(CCCCCC)C(=O)N[C@@H](C)C(=O)OC` (stereo partly shown) [Compound 1, methyl (2-hexyl-3-oxodecanoyl)alaninate]?
**A.** sebum production amount (fat content in sebocytes, oil red O, absorbance 500 nm) (human sebocytes [1]; human sebocytes pretreated with IGF-1 (50 ng/ml), 20 μM, 24 hours, FIG. 2): remarkably decreased; dependence of the sebum production decrease on treatment concentration (human sebocytes [1]; human sebocytes pretreated with IGF-1, oil red O, each concentration): significantly increased depending on the treatment concentration; inhibition of PPAR-γ activation/expression (Western blot) (PPAR-γ): effect of inhibiting PPAR-γ activity is remarkable; differentiation of fat cells (Nile red staining, microscopic image) (human sebocytes [2]): differentiation of fat cells is more effectively derived
